{"source": "paper PMC12005787", "about": "“Synthetic Lethality of SHP2 and XIAP Suppresses Proliferation and Metastasis in KRAS‐mutant Nonsmall Cell Lung Cancer” (Advanced Science, 2025)", "type_in_all_cases": "cell-based, human", "conditions_in_all_cases": "24 h", "key": {"[1]": {"test_system": "NCI‐H2122 cells", "experiment": "Apoptosis detection (Annexin-V-FITC/PI)", "experimental": "(§1) NCI-H2122 cells treated with the given disposal were digested with trypsin, resuspended\n(§2) in cold PBS, and centrifuged at room temperature (1000×g for 5 min) to discard the\nsupernatant. Approximately 100,000 cells were collected and 195 μL of Annexin V-FITC\nconjugate was added to gently resuspend the cells and then 5 μL of Annexin V-FITC and 10\nμL of propidium iodide (PI) staining solution were added respectively. They were then\nincubated at 37 °C for 10-20 min in the dark, placed on ice, and passed through a flow\ncytometer (Becton, Dickinson, Calibur, USA) for online detection. […]\n(1 picture or pasted object on this page, not shown here)"}, "[2]": {"test_system": "NCI‐H2122 and A549 cells", "experiment": "Cell scratch and cell migration assays", "experimental": "supplies are listed in Supplementary Table S5. The relevant reagents for protein extraction from Escherichia coli are listed in Supplementary Table S6. Inhibitory effects of embelin on KRAS-mutant and wild-type cells are listed in Supplementary Table S7.\nFor the adherent cell viability assay, cells in the logarithmic growth phase were seeded in 96-well culture plates at a density of 5×103 well-1 and incubated overnight. Diluted compounds or DMSO were added, or specific treatments were incubated at 37 °C and 5% CO2 for 24 h or 48 h. Cell viability was determined using CCK-8 or CellLightTM Cell Viability Assay Kit, according to the manufacturer's protocol. The luminescence signals of the treated samples were normalized to those of the DMSO group.\nFor spherical cell viability assays, cells in the logarithmic growth phase were inoculated ata density of 4×10^3 well-1 into 96-well spherical cell microplates and incubated at 37 °C, 5% CO2 for 24 h or 48 h. Cell viability was measured using the CellTiter-Glo® Luminescent Cell Viability 3D Cell Viability Assay Kit, according to the manufacturer’s protocol. […]\nFinally, the staining results were recorded using an inverted microscope. […]\nNCI-H2122 and A549 cells were seeded in six-well plates. […] Finally, the scratch was photographed using an inverted microscope and the wound healing status was recorded. […]"}, "[3]": {"test_system": "NCI‐H2122 cells", "experiment": "ROS release assay", "experimental": "incubated with a horseradish peroxidase (HRP)-conjugated secondary antibody at room\ntemperature for 2 h and then incubated with enhanced chemiluminescence (ECL) solutions for\n15 s at room temperature. A fully automated gel imaging system (General Electric Company,\nUSA) was used for the exposure imaging.\nNCI-H2122 cells were inoculated into 96-well plates specialized for high-content cell\nimaging, treated with various drugs, fixed with 4% neutral formaldehyde, and sealed with 5%\nBSA after permeabilization with 0.05% Triton X-100. Subsequently, the cells were incubated\nwith the given primary antibody overnight at 4 °C and then with corresponding fluorescent\nsecondary antibody in dark at room temperature for 1 h. […] (DAPI)\nwas applied to nuclear staining. Fluorescence images were captured using a high-content\nanalyzer (Thermo Scientific, USA).\nas §1, §2\nsupernatant. […]\nRNaseA) was incubated in dark at 37℃ for 30 min. Red fluorescence and light scattering\nwere detected by flow cytometry at 488 nm. Cell cycle results were analyzed and visualized […]\nintracellular ROS levels were detected by flow cytometry (λa = 488 nm, λe = 525 nm). […]\nsealed with a DAPI-containing anti-fluorescence quenching sealer for 30 min at room […]"}}}
{"smiles": "CCCCCCCCCCCC1=C(O)C(=O)C=C(O)C1=O", "note": "[Embelin]", "values": [{"measurement": "effect on apoptosis", "setting": "[1]", "result": "increased the proportion of early and late apoptotic cells"}, {"measurement": "effect on cell mobility / migration", "setting": "[2]", "result": "potently inhibit the migration capabilities"}, {"measurement": "effect on ROS release", "setting": "[3]", "result": "promoted ROS release"}]}
{"smiles": "CC1(N)CCN(c2cnc(-c3cccc(Cl)c3Cl)c(N)n2)CC1", "note": "[SHP099]", "values": [{"measurement": "effect on apoptosis", "setting": "[1]", "result": "promoted apoptosis"}, {"measurement": "effect on cell mobility / migration", "setting": "[2]", "result": "poor effect on cell mobility"}, {"measurement": "effect on ROS release", "setting": "[3]", "result": "promoted ROS release"}]}
